Reference: patent US8022206B2 (OSI Pharmaceuticals, LLC, priority 2008, dated 2011)

Key:
MET (human) = MET (human) (Homo sapiens, UniProt P08581); assay: MET (human) AlphaScreen kinase assay, Km of ATP; type: biochemical; settings: AlphaScreen, Km of ATP; read-out: Met biochemical IC50
Method in brief: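 Human MET at lot-optimised concentration in 50 mM Tris pH 7.4 buffer with 1 mM DTT, compound at 1% DMSO final; enzyme starts the reaction, 60 min at RT.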

RON (human) = RON (human) (Homo sapiens, UniProt Q04912); assay: RON (human) AlphaScreen kinase assay, Km of ATP; type: biochemical; settings: AlphaScreen, Km of ATP; read-out: RON biochemical IC50
Method in brief: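 Detection used PT66 AlphaScreen beads added in Tris pH 7.5/NaCl/EDTA/BSA buffer, read after 1 h incubation. Vehicle-only DMSO wells served as controls.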

Chain of MET (human) (P08581 25-1390): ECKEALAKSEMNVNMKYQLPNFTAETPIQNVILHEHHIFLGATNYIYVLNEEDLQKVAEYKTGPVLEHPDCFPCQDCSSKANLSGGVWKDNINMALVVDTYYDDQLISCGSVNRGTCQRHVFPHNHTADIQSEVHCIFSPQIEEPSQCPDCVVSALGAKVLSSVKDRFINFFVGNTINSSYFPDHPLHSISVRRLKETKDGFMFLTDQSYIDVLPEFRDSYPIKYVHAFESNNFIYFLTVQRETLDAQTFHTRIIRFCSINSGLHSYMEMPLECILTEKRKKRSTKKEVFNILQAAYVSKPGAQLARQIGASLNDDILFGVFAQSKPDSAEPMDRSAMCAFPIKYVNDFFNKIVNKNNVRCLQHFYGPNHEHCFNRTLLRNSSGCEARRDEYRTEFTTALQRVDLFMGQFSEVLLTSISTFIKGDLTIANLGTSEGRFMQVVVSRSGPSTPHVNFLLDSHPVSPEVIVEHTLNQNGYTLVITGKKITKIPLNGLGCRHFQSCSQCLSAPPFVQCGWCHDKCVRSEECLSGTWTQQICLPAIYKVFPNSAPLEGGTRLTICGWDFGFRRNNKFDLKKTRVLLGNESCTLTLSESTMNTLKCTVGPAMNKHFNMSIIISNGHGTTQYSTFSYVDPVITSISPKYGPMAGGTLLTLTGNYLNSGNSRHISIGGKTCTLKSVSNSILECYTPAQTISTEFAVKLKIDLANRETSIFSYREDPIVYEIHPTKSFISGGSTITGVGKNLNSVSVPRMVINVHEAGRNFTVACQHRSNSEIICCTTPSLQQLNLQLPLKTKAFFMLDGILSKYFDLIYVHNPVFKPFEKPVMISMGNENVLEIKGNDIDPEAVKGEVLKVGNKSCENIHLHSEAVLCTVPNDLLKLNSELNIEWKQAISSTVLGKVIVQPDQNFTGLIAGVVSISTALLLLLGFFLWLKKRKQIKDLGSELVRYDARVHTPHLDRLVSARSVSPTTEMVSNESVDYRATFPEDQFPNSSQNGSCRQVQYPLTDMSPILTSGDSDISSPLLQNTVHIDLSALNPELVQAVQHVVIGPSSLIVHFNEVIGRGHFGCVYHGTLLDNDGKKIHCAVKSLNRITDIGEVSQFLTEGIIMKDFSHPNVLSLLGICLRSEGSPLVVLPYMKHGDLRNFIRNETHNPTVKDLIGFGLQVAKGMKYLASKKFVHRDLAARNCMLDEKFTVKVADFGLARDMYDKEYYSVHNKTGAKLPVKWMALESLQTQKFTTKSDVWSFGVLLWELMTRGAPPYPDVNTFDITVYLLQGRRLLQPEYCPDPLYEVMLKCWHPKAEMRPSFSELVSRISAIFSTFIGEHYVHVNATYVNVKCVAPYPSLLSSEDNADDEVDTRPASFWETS
Chain of RON (human) (Q04912 25-1400): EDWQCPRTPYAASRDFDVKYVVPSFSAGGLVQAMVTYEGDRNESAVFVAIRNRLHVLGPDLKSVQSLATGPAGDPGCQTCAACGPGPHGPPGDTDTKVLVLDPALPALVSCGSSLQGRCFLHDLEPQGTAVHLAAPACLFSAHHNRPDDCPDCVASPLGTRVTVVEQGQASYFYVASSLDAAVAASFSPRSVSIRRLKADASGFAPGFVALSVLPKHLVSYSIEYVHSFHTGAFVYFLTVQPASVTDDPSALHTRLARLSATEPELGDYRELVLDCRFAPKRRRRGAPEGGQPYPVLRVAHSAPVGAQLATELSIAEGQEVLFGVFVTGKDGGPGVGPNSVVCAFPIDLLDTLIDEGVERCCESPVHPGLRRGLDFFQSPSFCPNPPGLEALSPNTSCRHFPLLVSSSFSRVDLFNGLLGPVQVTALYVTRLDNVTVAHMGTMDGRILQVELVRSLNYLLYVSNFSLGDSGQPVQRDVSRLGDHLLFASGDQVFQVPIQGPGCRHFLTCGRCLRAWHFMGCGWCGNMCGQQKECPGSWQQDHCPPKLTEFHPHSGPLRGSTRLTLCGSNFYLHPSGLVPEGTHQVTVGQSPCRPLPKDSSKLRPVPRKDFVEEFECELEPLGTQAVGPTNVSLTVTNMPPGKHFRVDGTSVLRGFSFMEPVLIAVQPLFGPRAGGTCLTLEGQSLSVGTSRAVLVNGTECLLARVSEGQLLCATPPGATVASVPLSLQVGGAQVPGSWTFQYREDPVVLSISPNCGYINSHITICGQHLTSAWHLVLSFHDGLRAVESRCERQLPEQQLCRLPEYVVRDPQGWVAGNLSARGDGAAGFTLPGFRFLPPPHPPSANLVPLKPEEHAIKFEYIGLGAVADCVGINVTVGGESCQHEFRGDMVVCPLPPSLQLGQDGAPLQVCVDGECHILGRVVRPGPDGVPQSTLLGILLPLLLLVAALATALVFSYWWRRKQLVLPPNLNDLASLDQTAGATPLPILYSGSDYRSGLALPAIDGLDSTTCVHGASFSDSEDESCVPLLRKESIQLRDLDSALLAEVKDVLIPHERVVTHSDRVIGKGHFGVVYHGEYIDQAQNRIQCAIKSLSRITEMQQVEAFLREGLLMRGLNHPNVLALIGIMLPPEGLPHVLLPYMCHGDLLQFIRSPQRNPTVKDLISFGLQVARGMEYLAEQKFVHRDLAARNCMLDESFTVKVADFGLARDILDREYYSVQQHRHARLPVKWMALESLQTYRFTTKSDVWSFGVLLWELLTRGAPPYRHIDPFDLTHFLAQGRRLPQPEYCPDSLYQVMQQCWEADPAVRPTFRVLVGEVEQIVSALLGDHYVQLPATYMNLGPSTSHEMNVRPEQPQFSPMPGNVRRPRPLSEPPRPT

Compound | IC50 (MET (human)) [nM] | IC50 (RON (human)) [nM]
Nc1ncc2c(-c3cnn(C4CCNCC4)c3)coc2c1OCCc1ccccc1 [Example 416, 7-Phenethyloxy-3-(1-piperidin-4-yl-1H-pyrazol-4-yl)furo[3,2-c]pyridin-6-ylamine] | 500 to 5000 | 500 to 5000
C[C@@H](Oc1c(N)ncc2c(C3=CCN(C(=O)CN(C)C)CC3)coc12)c1c(Cl)ccc(F)c1Cl [Example 9, 1-(4-{6-Amino-7-[(R)-1-(2,6-dichloro-3-fluorophenyl)ethoxy]-furo[3,2-c]pyridin-3-yl}-3,6-dihydro-2H-pyridin-1-yl)-2-dimethylaminoethanone] | < 500 | < 500
C#CCC(Oc1c(N)ncc2c(-c3cnn(C4CCNCC4)c3)coc12)c1c(Cl)cccc1Cl (stereo not shown) [Example 341, 7-[1-(2,6-Dichlorophenyl)but-3-ynyloxy]-3-(1-piperidin-4-yl-1H-pyrazol-4-yl)-furo[3,2-c]pyridin-6-ylamine] | < 500 | < 500
C[C@@H](Oc1c(N)ncc2c(-c3ccc([N+](=O)[O-])nc3)coc12)c1c(Cl)ccc(F)c1Cl [Example 119, 7-[(R)-1-(2,6-Dichloro-3-fluorophenyl)ethoxy]-3-(6-nitropyridin-3-yl)furo[3,2-c]pyridin-6-ylamine] | 500 to 5000 | 5000 to 20000
C[C@@H](Oc1c(N)ncc2c(C3=CCN(C(=O)NC(C)(C)C)CC3)coc12)c1c(Cl)ccc(F)c1Cl [Example 148, 4-{6-Amino-7-[(1R)-1-(2,6-dichloro-3-fluorophenyl)ethoxy]furo[3,2-c]pyridin-3-yl}-N-tert-butyl-3,6-dihydropyridine-1(2H)-carboxamide] | < 500 | 500 to 5000
C[C@@H](Oc1c(N)ncc2c(C3=CCN(CCN)CC3)coc12)c1c(Cl)ccc(F)c1Cl [Example 43, 3-[1-(2-Aminoethyl)-1,2,3,6-tetrahydropyridin-4-yl]-7-[(R)-1-(2,6-dichloro-3-fluorophenyl)ethoxy]-furo[3,2-c]pyridin-6-ylamine] | < 500 | < 500
Cc1c(F)cccc1C(C)Oc1c(N)ncc2c(-c3cnn(C4CCNCC4)c3)coc12 (stereo not shown) [Example 380, 7-[1-(3-Fluoro-2-methylphenyl)ethoxy]-3-(1-piperidin-4-yl-1H-pyrazol-4-yl)furo[3,2-c]pyridin-6-ylamine] | < 500 | 500 to 5000
C[C@@H](Oc1c(N)ncc2c(-c3ccc(N4CCN(C(N)=O)CC4)cc3)coc12)c1c(Cl)ccc(F)c1Cl [Example 320, 4-(4-{6-Amino-7-[(R)-1-(2,6-dichloro-3-fluorophenyl)ethoxy]furo[3,2-c]pyridin-3-yl}phenyl)piperazine-1-carboxamide] | 500 to 5000 | 500 to 5000
CCC(=O)N1CC=C(c2coc3c(O[C@H](C)c4c(Cl)ccc(F)c4Cl)c(N)ncc23)CC1 [Example 14, 1-(4-{6-Amino-7-[(R)-1-(2,6-dichloro-3-fluorophenyl)-ethoxy]-furo[3,2-c]pyridin-3-yl}-3,6-dihydro-2H-pyridin-1-yl)-propan-1-one] | < 500 | 500 to 5000
COc1ccccc1CC(C)Oc1c(N)ncc2c(-c3cnn(C4CCNCC4)c3)coc12 (stereo not shown) [Example 406, 7-[2-(2-Methoxyphenyl)-1-methylethoxy]-3-(1-piperidin-4-yl-1H-pyrazol-4-yl)furo[3,2-c]pyridin-6-ylamine] | < 500 | < 500
C[C@@H](Oc1c(N)ncc2c(C3=CCN(C(=O)c4ccccc4)CC3)coc12)c1c(Cl)ccc(F)c1Cl [Example 11, (4-{6-Amino-7-[(R)-1-(2,6-dichloro-3-fluorophenyl)-ethoxy]-furo[3,2-c]pyridin-3-yl}-3,6-dihydro-2H-pyridin-1-yl)-phenylmethanone] | 500 to 5000 | 500 to 5000
CC(Oc1c(N)ncc2c(-c3cnn(C4CCNCC4)c3)coc12)c1cccc(-c2ccc[nH]2)c1 (stereo not shown) [Example 445] | 500 to 5000 | 500 to 5000
C[C@@H](Oc1c(N)ncc2c(C3=CCN(CC4CCCCC4)CC3)coc12)c1c(Cl)ccc(F)c1Cl [Example 38, 3-(1-Cyclohexylmethyl-1,2,3,6-tetrahydropyridin-4-yl)-7-[(R)-1-(2,6-dichloro-3-fluorophenyl)-ethoxy]-furo[3,2-c]pyridin-6-ylamine] | < 500 | < 500
C[C@@H](Oc1c(N)ncc2c(-c3ccc(O)cc3)coc12)c1c(Cl)ccc(F)c1Cl [Example 59, 4-{6-Amino-7-[(R)-1-(2,6-dichloro-3-fluorophenyl)ethoxy]-furo[3,2-c]pyridin-3-yl}phenol] | 500 to 5000 | 500 to 5000
C[C@@H](Oc1c(N)ncc2c(-c3ccc(C(=O)N4CCCC4)cc3)coc12)c1c(Cl)ccc(F)c1Cl [Example 84, (4-{6-Amino-7-[(R)-1-(2,6-dichloro-3-fluorophenyl)ethoxy]-furo[3,2-c]pyridin-3-yl}phenyl)pyrrolidin-1-ylmethanone] | < 500 | 500 to 5000
C[C@@H](Oc1c(N)ncc2c(C3=CCN(C(C)(C)C)CC3)coc12)c1c(Cl)ccc(F)c1Cl [Example 163, 3-(1-tert-Butyl-1,2,3,6-tetrahydropyridin-4-yl)-7-[(1R)-1-(2,6-dichloro-3-fluorophenyl)ethoxy]furo[3,2-c]pyridin-6-amine] | < 500 | < 500
CNC(=O)c1cccc(-c2coc3c(O[C@H](C)c4c(Cl)ccc(F)c4Cl)c(N)ncc23)c1 [Example 68, 3-{6-Amino-7-[(R)-1-(2,6-dichloro-3-fluorophenyl)ethoxy]-furo[3,2-c]pyridin-3-yl}-N-methylbenzamide] | 500 to 5000 | 500 to 5000
CC(Cc1ccccc1)Oc1c(N)ncc2c(-c3cnn(C4CCNCC4)c3)coc12 (stereo not shown) [Example 405, 7-(1-Methyl-2-phenylethoxy)-3-(1-piperidin-4-yl-1H-pyrazol-4-yl)furo[3,2-c]pyridin-6-ylamine] | < 500 | < 500
C[C@@H](Oc1c(N)ncc2c(-c3cncnc3)coc12)c1c(Cl)ccc(F)c1Cl [Example 112, 7-[(R)-1-(2,6-Dichloro-3-fluorophenyl)ethoxy]-3-pyrimidin-5-ylfuro[3,2-c]pyridin-6-ylamine] | 500 to 5000 | 500 to 5000
C[C@@H](Oc1c(N)ncc2c(-c3cnn(C4CCNCC4)c3)coc12)c1nnc2ccc(-c3cnn(C)c3)nn12 [Example 469, 7-{(1R)-1-[6-(1-methyl-1H-pyrazol-4-yl) [1,2,4]triazolo[4,3-b]pyridazin-3-yl]ethoxy}-3-[1-(piperidin-4-yl)-1H-pyrazol-4-yl]furo[3,2-c]pyridin-6-amine] | < 500 | 5000 to 20000
CCN1CC=C(c2coc3c(O[C@H](C)c4c(Cl)ccc(F)c4Cl)c(N)ncc23)CC1 [Example 40, 7-[(R)-1-(2,6-Dichloro-3-fluorophenyl)-ethoxy]-3-(1-ethyl-1,2,3,6-tetrahydropyridin-4-yl)-furo[3,2-c]pyridin-6-ylamine] | < 500 | < 500
C[C@@H](Oc1c(N)ncc2c(-c3cccc(S(C)(=O)=O)c3)coc12)c1c(Cl)ccc(F)c1Cl [Example 67, 7-[(R)-1-(2,6-Dichloro-3-fluor-phenyl)ethoxy]-3-(3-methane-sulfonylphenyl)-furo[3,2-c]pyridin-6-ylamine] | < 500 | 500 to 5000
C#CCC(Oc1c(N)ncc2c(C3=CCN(C(N)=O)CC3)coc12)c1c(Cl)ccc(F)c1Cl (stereo not shown) [Example 459, 4-(6-Amino-7-{[1-(2,6-dichloro-3-fluorophenyl)but-3-yn-1-yl]oxy}furo[3,2-c]pyridin-3-yl)-3,6-dihydropyridine-1(2H)-carboxamide] | < 500 | 500 to 5000
CCCCS(=O)(=O)Nc1cccc(-c2coc3c(O[C@H](C)c4c(Cl)ccc(F)c4Cl)c(N)ncc23)c1 [Example 246, Butane-1-sulfonic acid (3-{6-amino-7-[(R)-1-(2,6-dichloro-3-fluorophenyl)ethoxy]-furo[3,2-c]pyridin-3-yl}phenyl)amide] | 500 to 5000 | 5000 to 20000
C[C@@H](Oc1c(N)ncc2c(-c3cnn(C4CCNCC4)c3)c(C#CC(C)(C)O)oc12)c1c(Cl)ccc(F)c1Cl [Example 171, 4-[6-Amino-7-[(R)-1-(2,6-dichloro-3-fluorophenyl)ethoxy]-3-(1-piperidin-4-yl-1H-pyrazol-4-yl)-furo[3,2-c]pyridin-2-yl]-2-methylbut-3-yn-2-ol] | < 500 | < 500
CC(Oc1c(N)ncc2c(-c3cnn(C4CCNCC4)c3)coc12)c1cccc(-c2ccccc2)c1 (stereo not shown) [Example 444, 7-(1-Biphenyl-3-ylethoxy)-3-(1-piperidin-4-yl-1H-pyrazol-4-yl)furo[3,2-c]pyridin-6-ylamine] | 500 to 5000 | 500 to 5000
CCN1CCN(C(=O)N2CC=C(c3coc4c(O[C@H](C)c5c(Cl)ccc(F)c5Cl)c(N)ncc34)CC2)CC1 [Example 27, (4-{6-Amino-7-[(R)-1-(2,6-dichloro-3-fluorophenyl)-ethoxy]-furo[3,2-c]pyridin-3-yl}-3,6-dihydro-2H-pyridin-1-yl)-(4-ethylpiperazin-1-yl)-methanone] | < 500 | < 500
C[C@@H](Oc1c(N)ncc2c(C3=CCCN(C(N)=O)C3)coc12)c1c(Cl)ccc(F)c1Cl [Example 143, 5-{6-Amino-7-[(R)-1-(2,6-dichloro-3-fluorophenyl)ethoxy]furo[3,2-c]pyridin-3-yl}-3,6-dihydro-2H-pyridine-1-carboxamide] | < 500 | 500 to 5000
CCN1CC2CC1CN2C(=O)N1CC=C(c2coc3c(O[C@H](C)c4c(Cl)ccc(F)c4Cl)c(N)ncc23)CC1 (stereo partly drawn) [Example 222, (4-{6-Amino-7-[(R)-1-(2,6-dichloro-3-fluorophenyl)ethoxy]-furo[3,2-c]pyridin-3-yl}-3,6-dihydro-2H-pyridin-1-yl)-(5-ethyl-2,5-diazabicyclo[2.2.1]hept-2-yl)-methanone] | < 500 | < 500
